Key:
[1] = system: Hep3B (human hepatoma cell line) cells; test: AAV2/6 delivery of albumin ZFNs to Hep3B cells after growth factor receptor inhibitor pre-incubation; % indels by deep sequencing; format: cell-based; conditions: serum-free pre-incubation, AAV2/6 albumin ZFNs MOI 3e4 vg/cell
Description: In order to test the relative contribution of co-receptors to AAV transduction, inhibitors against epidermal growth factor receptor (EGFR), hepatocyte growth factor receptor (HGFR), fibroblast growth factor receptor (FGFR) and platelet-derived growth factor receptor (PDGFR) were used prior to in vitro AAV2/6 transduction experiments in Hep3B (human hepatoma cell line) cells using zinc-finger nucleases (ZFNs) targeting the human albumin locus. Hep3B cells were plated at a density of 1×10^5 cells per well in a 48-well tissue culture plate in 300 μL complete growth media the day before transduction with AAV2/6. On the morning of transduction, the cells were washed three times with serum-free media and incubated in the serum-free media for three hours. Growth factor receptor inhibitors were added to the wells and incubated for one hour. AAV2/6 particles to deliver ZFNs targeted to the albumin locus were then added to the wells. After three hours, serum was added to the wells to a final concentration of 10%. The cells were harvested on day 4 post-transduction. Genomic DNA was extracted and analyzed by deep sequencing (MiSeq) at the albumin locus. The growth factor receptor inhibitors used are shown below in Table 1, and they were used in the experiment in the concentrations indicated in FIG. 3, where each inhibitor is labeled by its target.

[2] = system: human patient-derived primary hepatocytes; test: AAV2/6 ZFN transduction of primary hepatocytes with PDGFR inhibitor; % indels; format: cell-based; conditions: 9 μM
Description: For human hepatocytes, 48-well cell culture dishes were purchased pre-coated with collagen (Life Technologies). Plates were incubated for 1 hour at 37° C. Thawing/plating media was prepared by combining 18 mL InVitroGRO CP medium (BioreclamationIVT) and 400 μL Torpedo antibiotic mix (Celsis In Vitro Technologies). Once the plates were prepared, the plate-able human hepatocytes (Lot# AKB), were transferred from the liquid nitrogen vapor phase directly into the 37° C. water bath and thawed under gently stirring. The cells were transferred directly into a 50 ml conical tube containing 5 mL of pre-warmed thawing/plating medium. To retrieve all the cells, the vial was washed with 1 mL of thawing/plating medium, which was added to the cells. Following resuspension of the cells, a small aliquot (20 μL) was removed to perform a cell count and to determine cell viability using trypan blue solution (1:5; Corning, Cat#25-900-C1). The cells were then centrifuged at 75×g for 5 minutes, the supernatant was removed and the cells were resuspended at 1e6 cells/mL. Cells were seeded at 3e5 cells/well in the coated 48-well plates. Cells were then incubated in a 37° C./5% CO2 incubator.
One day after the cells were plated, cells were switched to HCM maintenance medium (Lonza, HBM and HCM SingleQuots). […] Genomic DNA was extracted and analyzed by deep sequencing (MiSeq) at the albumin locus.

Compound	AAV transduction compared to control (% indels) [1]	indels detected as compared to no inhibitor [2]
COc1cc2ncnc(Nc3ccc(F)c(Cl)c3)c2cc1OCCCN1CCOCC1 [EGFRi, Gefitinib]	mild inhibition	
CCN1CCN(c2ccc(Nc3cc(N(C)C(=O)Nc4c(Cl)c(OC)cc(OC)c4Cl)ncn3)cc2)CC1 [FGFRi, BGJ398]	mild stimulation	
Cc1[nH]c(/C=C2\C(=O)Nc3ccc(S(=O)(=O)N(C)c4cccc(Cl)c4)cc32)c(C)c1C(=O)N1CCN(C)CC1 [HGFRi, SU11274]	mild stimulation	
CC1(COc2ccc3c(c2)ncn3-c2ccc3cccc(N4CCC(N)CC4)c3n2)COC1 [Crenolanib]		large increase

— patent US10450585B2, “Delivery methods and compositions for nuclease-mediated genome engineering” (Sangamo Therapeutics, Inc., priority 2015, dated 2019)
